In ChEMBL document CHEMBL1139707, “In vitro inhibitory activity of boropinic acid against Helicobacter pylori” (2006):
In brackets after ≈: the same amount, converted by molar mass.

test system: Helicobacter pylori; assay: Antimicrobial activity against Helicobacter pylori DSMZ 4867; format: functional

MIC | Structure (SMILES)
0.781 µg/mL (≈ 2.14 µM) | CC1(C)S[C@@H]2[C@H](NC(=O)[C@H](N)c3ccc(O)cc3)C(=O)N2[C@H]1C(=O)O [AMOXICILLIN]
50 µg/mL (≈ 212 µM) | COc1cc(C(=O)O)ccc1OCC=C(C)C
4 µg/mL (≈ 9 µM) | CN(C)[C@@H]1C(O)=C(C(N)=O)C(=O)[C@@]2(O)C(O)=C3C(=O)c4c(O)cccc4[C@@](C)(O)[C@H]3C[C@@H]12 [TETRACYCLINE]
100 µg/mL (≈ 485 µM) | CC(C)=CCOc1ccc(C(=O)O)cc1 [VALENCIC ACID]
1.62 µg/mL (≈ 6.18 µM) | COc1cc(/C=C/C(=O)O)ccc1OCC=C(C)C [BOROPINIC ACID]
> 200 µg/mL | Cc1ncc([N+](=O)[O-])n1CCO [METRONIDAZOLE]
1.25 µg/mL (≈ 1.67 µM) | CC[C@H]1OC(=O)[C@H](C)[C@@H](O[C@H]2C[C@@](C)(OC)[C@@H](O)[C@H](C)O2)[C@H](C)[C@@H](O[C@@H]2O[C@H](C)C[C@H](N(C)C)[C@H]2O)[C@](C)(OC)C[C@@H](C)C(=O)[C@H](C)[C@@H](O)[C@]1(C)O [CLARITHROMYCIN]
> 200 µg/mL | CC(C)=CCC/C(C)=C/COc1ccc(/C=C/C(=O)O)cc1
> 200 µg/mL | COc1cc(C(=O)O)ccc1OC/C=C(\C)CCC=C(C)C
> 200 µg/mL | COc1cc(/C=C/C(=O)O)ccc1OC/C=C(\C)CCC=C(C)C
50 µg/mL (≈ 168 µM) | CC(C)=CCC/C(C)=C/COc1ccc2ccc(=O)oc2c1 [AURAPTENE]
